Laboratory results published in ChEMBL document CHEMBL1201862, “PubChem BioAssay data set” (2004).
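In this assay, cells in 96-well plates receive the compound at five concentrations for 48 hours. Endpoints are linearly interpolated between the surrounding concentrations. Abbreviation: GI50, concentration required for 50% inhibition of growth.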 The source made the active and inactive calls. Rule as the data show it: active = GI50 up to about 1.1 µM and inactive = higher.

Legend:
Test in all cases: NCI-60 cell line screen, 48 h
DMS-114 = system: DMS-114
OVCAR-3 = system: OVCAR-3
RXF 631 = system: RXF 631
SF-268 = system: SF-268
OVCAR-8 = system: OVCAR-8
SNB-75 = system: SNB-75
XF498 = system: XF498
Malme-3M = system: Malme-3M
CCRF-CEM = system: CCRF-CEM
ACHN = system: ACHN
NCI-H460 = system: NCI-H460
COLO 205 = system: COLO 205
MOLT-4 = system: MOLT-4
SK-MEL-28 = system: SK-MEL-28
NCI-H226 = system: NCI-H226
HOP-92 = system: HOP-92
SK-MEL-2 = system: SK-MEL-2
HOP-18 = system: HOP-18
SW-620 = system: SW-620
M14 = system: M14
SNB-78 = system: SNB-78
UACC-62 = system: UACC-62
EKVX = system: EKVX
CAKI-1 = system: CAKI-1
OVCAR-5 = system: OVCAR-5
SR = system: SR
UO-31 = system: UO-31
SF-295 = system: SF-295
DLD-1 = system: DLD-1
HT-29 = system: HT-29
M19-MEL = system: M19-MEL
OVCAR-4 = system: OVCAR-4
LXFL 529 = system: LXFL 529
SF-539 = system: SF-539
A549 = system: A549
A498 = system: A498
KM-20L2 = system: KM-20L2
SN12C = system: SN12C
RXF 393 = system: RXF 393
TK-10 = system: TK-10
HCC 2998 = system: HCC 2998
IGROV-1 = system: IGROV-1
HCT-116 = system: HCT-116
RPMI-8226 = system: RPMI-8226
SK-MEL-5 = system: SK-MEL-5
HOP-62 = system: HOP-62
LOX IMVI = system: LOX IMVI
NCI-H522 = system: NCI-H522
SNB-19 = system: SNB-19
NCI-H23 = system: NCI-H23
K562 = system: K562
KM12 = system: KM12
SK-OV-3 = system: SK-OV-3
U-251 = system: U-251
UACC-257 = system: UACC-257
786-0 = system: 786-0
HCT-15 = system: HCT-15
HL-60 = system: HL-60
DMS-273 = system: DMS-273

Measured: GI50

NC1=NCC(c2ccccn2)C1c1ccc(F)cc1 (stereo unspecified)
inactive: DMS-114 > 100 µM | OVCAR-3 > 100 µM | RXF 631 > 100 µM | SF-268 > 100 µM | OVCAR-8 > 100 µM | SNB-75 > 100 µM | XF498 > 100 µM | Malme-3M > 100 µM | CCRF-CEM > 100 µM | ACHN > 100 µM | NCI-H460 > 100 µM | COLO 205 > 100 µM | MOLT-4 > 100 µM | SK-MEL-28 > 100 µM | NCI-H226 > 100 µM | HOP-92 > 100 µM | SK-MEL-2 > 100 µM | HOP-18 > 100 µM | SW-620 > 100 µM | M14 > 100 µM | SNB-78 > 100 µM | UACC-62 > 100 µM | EKVX > 100 µM | CAKI-1 > 100 µM | OVCAR-5 > 100 µM | SR > 100 µM | UO-31 > 100 µM | SF-295 > 100 µM | DLD-1 > 100 µM | HT-29 > 100 µM | M19-MEL > 100 µM | OVCAR-4 > 100 µM | LXFL 529 > 100 µM | SF-539 > 100 µM | A549 > 100 µM | A498 > 100 µM | KM-20L2 > 100 µM | SN12C > 100 µM | RXF 393 > 100 µM | TK-10 > 100 µM | HCC 2998 > 100 µM | IGROV-1 > 100 µM | HCT-116 > 100 µM | RPMI-8226 > 100 µM | SK-MEL-5 > 100 µM | HOP-62 > 100 µM | LOX IMVI > 100 µM | NCI-H522 > 100 µM | SNB-19 > 100 µM | NCI-H23 > 100 µM | K562 > 100 µM | KM12 > 100 µM | SK-OV-3 > 100 µM | U-251 > 100 µM | UACC-257 > 100 µM | 786-0 > 100 µM

CCOP(=O)(Cc1ccc(CP(=O)(OCC)OCC)n1C)OCC
> 100 µM: HCT-15
inactive: DMS-114 > 100 µM | OVCAR-3 > 100 µM | RXF 631 > 100 µM | SF-268 > 100 µM | OVCAR-8 > 100 µM | SNB-75 > 100 µM | Malme-3M > 100 µM | CCRF-CEM > 100 µM | ACHN > 100 µM | NCI-H460 > 100 µM | COLO 205 > 100 µM | MOLT-4 > 100 µM | SK-MEL-28 > 100 µM | HOP-92 > 100 µM | SK-MEL-2 > 100 µM | HOP-18 75 µM | SW-620 > 100 µM | M14 > 100 µM | UACC-62 > 100 µM | EKVX > 100 µM | CAKI-1 > 100 µM | OVCAR-5 > 100 µM | UO-31 > 100 µM | SF-295 > 100 µM | DLD-1 > 100 µM | HT-29 > 100 µM | M19-MEL > 100 µM | OVCAR-4 > 100 µM | LXFL 529 > 100 µM | SF-539 > 100 µM | A549 > 100 µM | KM-20L2 > 100 µM | SN12C > 100 µM | RXF 393 > 100 µM | TK-10 > 100 µM | HCC 2998 > 100 µM | IGROV-1 > 100 µM | RPMI-8226 > 100 µM | SK-MEL-5 > 100 µM | HOP-62 > 100 µM | LOX IMVI > 100 µM | NCI-H522 > 100 µM | SNB-19 > 100 µM | NCI-H23 > 100 µM | K562 > 100 µM | KM12 > 100 µM | HL-60 > 100 µM | DMS-273 > 100 µM | SK-OV-3 > 100 µM | U-251 > 100 µM | UACC-257 > 100 µM | 786-0 > 100 µM

CCc1nc2ccccc2c(=O)n1/N=C(\N=N\c1ccc(Cl)cc1)c1ccccc1Cl
inactive: DMS-114 20.1 µM | RXF 631 > 100 µM | SF-268 28 µM | OVCAR-8 39.5 µM | XF498 18.5 µM | ACHN 43.2 µM | NCI-H460 50.4 µM | COLO 205 52.6 µM | MOLT-4 26.1 µM | SK-MEL-28 23.5 µM | HOP-92 20.2 µM | HOP-18 20 µM | M14 68.5 µM | UACC-62 > 100 µM | EKVX 2.11 µM | CAKI-1 65.5 µM | UO-31 18.2 µM | SF-295 54.7 µM | HT-29 50.9 µM | M19-MEL > 100 µM | LXFL 529 23.4 µM | SF-539 47.4 µM | A498 51.9 µM | KM-20L2 48.3 µM | SN12C 57.3 µM | RXF 393 21.1 µM | TK-10 82.8 µM | IGROV-1 > 100 µM | HCT-116 26.8 µM | HOP-62 39.3 µM | LOX IMVI 53.2 µM | NCI-H522 > 10 µM | NCI-H23 82.8 µM | DMS-273 38.7 µM | SK-OV-3 60.7 µM | U-251 49.7 µM | 786-0 67.8 µM
68.2 µM: HCT-15

Cc1cccc2c1CCC21OC(=O)c2c1ccc1ccccc21 (stereo unspecified)
35.6 µM: HCT-15
inactive: DMS-114 24.8 µM | OVCAR-3 26 µM | RXF 631 24.4 µM | SF-268 > 100 µM | OVCAR-8 85.9 µM | SNB-75 82.6 µM | Malme-3M 20 µM | CCRF-CEM 38.6 µM | ACHN 79.1 µM | NCI-H460 42.2 µM | COLO 205 47 µM | MOLT-4 24.3 µM | SK-MEL-28 58.2 µM | NCI-H226 56.4 µM | SK-MEL-2 24.5 µM | HOP-18 42 µM | SW-620 39.2 µM | M14 23.7 µM | UACC-62 40.3 µM | EKVX 68.5 µM | CAKI-1 34.5 µM | OVCAR-5 88.5 µM | SR 29.2 µM | UO-31 47.4 µM | SF-295 55.5 µM | DLD-1 83.9 µM | HT-29 35.3 µM | M19-MEL 49 µM | OVCAR-4 52.6 µM | LXFL 529 47.6 µM | A549 > 100 µM | A498 16.8 µM | KM-20L2 53.8 µM | SN12C > 100 µM | RXF 393 64 µM | TK-10 36.1 µM | HCC 2998 29.4 µM | IGROV-1 55.2 µM | HCT-116 52.2 µM | SK-MEL-5 19.6 µM | HOP-62 70.1 µM | LOX IMVI 54.8 µM | NCI-H522 > 100 µM | SNB-19 90.4 µM | NCI-H23 32.9 µM | K562 21.7 µM | KM12 56.9 µM | HL-60 22.1 µM | DMS-273 32.7 µM | SK-OV-3 37.3 µM | U-251 45.8 µM | UACC-257 25.8 µM | 786-0 83.9 µM

N#Cc1ccccc1NC(=O)C(=O)C(C(=O)c1ccncc1)C1OC(=O)c2ccccc21 (stereo unspecified)
inactive: DMS-114 > 100 µM | OVCAR-3 > 100 µM | RXF 631 > 100 µM | SF-268 > 100 µM | OVCAR-8 > 100 µM | SNB-75 > 100 µM | XF498 > 100 µM | Malme-3M > 100 µM | CCRF-CEM 79.3 µM | ACHN > 100 µM | NCI-H460 > 100 µM | COLO 205 > 100 µM | SK-MEL-28 > 100 µM | NCI-H226 > 100 µM | HOP-92 > 100 µM | HOP-18 > 100 µM | SW-620 > 100 µM | M14 > 100 µM | SNB-78 > 100 µM | UACC-62 > 100 µM | EKVX > 100 µM | CAKI-1 > 100 µM | OVCAR-5 > 100 µM | SR > 100 µM | UO-31 > 100 µM | SF-295 > 100 µM | DLD-1 > 100 µM | HT-29 > 100 µM | M19-MEL > 100 µM | OVCAR-4 > 100 µM | LXFL 529 > 100 µM | SF-539 > 100 µM | A549 > 100 µM | A498 > 100 µM | KM-20L2 > 100 µM | SN12C > 100 µM | RXF 393 > 100 µM | TK-10 > 100 µM | HCC 2998 > 100 µM | IGROV-1 > 100 µM | HCT-116 > 100 µM | SK-MEL-5 > 100 µM | HOP-62 > 100 µM | LOX IMVI > 100 µM | NCI-H522 > 100 µM | SNB-19 > 100 µM | NCI-H23 > 100 µM | K562 > 100 µM | KM12 > 100 µM | HL-60 > 100 µM | SK-OV-3 > 100 µM | U-251 > 100 µM | UACC-257 > 100 µM | 786-0 > 100 µM
> 100 µM: HCT-15
